77 sequences from the supplement of paper PMC11208160 can be followed below.
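Further: IS621 recombinase and bridge RNA in Escherichia coli cells.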

A short description of the data set: recombinant barcode read abundance after kanamycin selection (control-corrected) (log10(CPM+1)); higher = more efficient recombination; sequences stand for … in AGTGCAGAGAAAATCGGCCAGTTTTCTCTGCCTGCAGTCCGCATGCCGT…AGATTTATGCAGCGGACTGCCTTTCTCCCAAAGTGATAAACCGGACAGTATCATGGACCGGTTTTCCCGGTAATCCGTATTTGCAAGGTTGGTTTCACT; site = the 11-nt target. In outline:
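In a pooled screen in E. coli, targets were paired with target-binding loops of the IS621 bridge RNA. Each oligo carried a promoter, a target, a barcode and the first 104 bridge RNA bases driven by J23119, and was Gibson-cloned into a vector holding the remaining 73 bp and a T7-inducible recombinase before co-electroporation with a donor plasmid. Duplicate platings went onto chloramphenicol/ampicillin LB agar as the control or onto chloramphenicol/ampicillin/kanamycin with 0.1 mM IPTG. Recombination efficiency is the averaged, control-corrected count per million of barcodes at recombinant junctions, given as log10(CPM+1).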
For the sequence “TGCGTCACTTGGGTTCTAACCTGTTGCGT (site TGCGTTCCTAC)”, the “recombinant barcode read abundance (log10)” value stood at 0.0906. The result for “TGCGTCGCTTGGGTTCTAACCTGTTGCCT (site AGCGTCGCTAG)” reads 0.149.

On to “TGCGTCGCTTGGGTTCTAACCTGTTGCCT (site TGCGTCGCTAG)”, for which the “recombinant barcode read abundance (log10)” value came out at 0.687. Take “TGCTAAGCTTGGGTTCTAACCTGTTGCTG (site TCCTAAGCTCC)”: the “recombinant barcode read abundance (log10)” value was 0.288. For the sequence “TGCTAAGCTTGGGTTCTAACCTGTTGCTG (site TGCTAAGCTCA)”, the “recombinant barcode read abundance (log10)” value worked out at 0.16. Then “TGCTACCCTTGGGTTCTAACCTGTTGCCT (site TACTACCCTAG)”, with 0.81; and “TGCTACCCTTGGGTTCTAACCTGTTGCCT (site TCCTACCCTAG)”, with 0.367; and “TGCTACCCTTGGGTTCTAACCTGTTGCCT (site TGCTACCCTAG)”, with 0.427. For “TGCTACCCTTGGGTTCTAACCTGTTGCCT (site TTCTACCCTAG)”, the “recombinant barcode read abundance (log10)” value was 0.213. The result for “TGCTGATCTTGGGTTCTAACCTGTTGCCT (site AGCTGATCTAG)” reads 0.114; that for “TGCTGATCTTGGGTTCTAACCTGTTGCCT (site CGCTGATCTAG)”, 0.159. Then “TGCTGATCTTGGGTTCTAACCTGTTGCCT (site GGCTGATCTAG)”, with 0.158; and “TGCTGATCTTGGGTTCTAACCTGTTGCCT (site TGCTGATCTAG)”, with 0.335; and “TGCTGTACTTGGGTTCTAACCTGTTGCCT (site TGCTGTACTAG)”, with 0. As for “TGCTGTACTTGGGTTCTAACCTGTTGCCT (site TGCTGTCCTAG)”, the “recombinant barcode read abundance (log10)” value was 0.0484.

On to “TGCTGTACTTGGGTTCTAACCTGTTGCCT (site TGCTGTGCTAG)”, for which the “recombinant barcode read abundance (log10)” value amounted to 0.0772. Then “TGCTGTACTTGGGTTCTAACCTGTTGCCT (site TGCTGTTCTAG)”, with 0.0131. In the case of “TGCTGTTCTTGGGTTCTAACCTGTTGCCT (site TGCTGTACTAG)”, the “recombinant barcode read abundance (log10)” value stood at 0.0922. As to “TGCTGTTCTTGGGTTCTAACCTGTTGCCT (site TGCTGTCCTAG)”, the “recombinant barcode read abundance (log10)” value worked out at 0.212. Regarding “TGCTGTTCTTGGGTTCTAACCTGTTGCCT (site TGCTGTGCTAG)”, the “recombinant barcode read abundance (log10)” value was 0.241. Then “TGCTGTTCTTGGGTTCTAACCTGTTGCCT (site TGCTGTTCTAG)”, with 0.187.

In the case of “TGCTTACCTTGGGTTCTAACCTGTTGCCT (site AGCTTACCTAG)”, the “recombinant barcode read abundance (log10)” value is 0.0889. On to “TGCTTACCTTGGGTTCTAACCTGTTGCCT (site CGCTTACCTAG)”, for which the “recombinant barcode read abundance (log10)” value amounted to 0.332. Then “TGCTTACCTTGGGTTCTAACCTGTTGCCT (site GGCTTACCTAG)”, with 0.185; and “TGCTTACCTTGGGTTCTAACCTGTTGCCT (site TGCTTACCTAG)”, with 0.282.

Consider “TGGAAGTCTTGGGTTCTAACCTGTTGCTT (site TGAAAGCCTAA)”, for which the “recombinant barcode read abundance (log10)” value came to 0. Consider “TGGAAGTCTTGGGTTCTAACCTGTTGCTT (site TGGAAGTCTAA)”, for which the “recombinant barcode read abundance (log10)” value came out at 0.418.

Consider “TGGAATTCTTGGGTTCTAACCTGTTGCTT (site TGGAATTCTAA)”, for which the “recombinant barcode read abundance (log10)” value amounted to 0.0863.

Turning to “TGGAATTCTTGGGTTCTAACCTGTTGCTT (site TGGACTTCTAA)”, the “recombinant barcode read abundance (log10)” value came to 0.0255. Regarding “TGGACCACTTGGGTTCTAACCTGTTGCCT (site TGGAACACTAG)”, the “recombinant barcode read abundance (log10)” value turned out to be 0.0728. With “TGGACCACTTGGGTTCTAACCTGTTGCCT (site TGGACCACTAG)”, the “recombinant barcode read abundance (log10)” value was found to be 0.765.

Consider “TGGACCACTTGGGTTCTAACCTGTTGCCT (site TGGAGCACTAG)”, for which the “recombinant barcode read abundance (log10)” value is 0.0755. Then “TGGACCACTTGGGTTCTAACCTGTTGCCT (site TGGATCACTAG)”, with 0.0342; and “TGGACTACTTGGGTTCTAACCTGTTGCTC (site CTACAACCTCT)”, with 0.209; and “TGGACTACTTGGGTTCTAACCTGTTGCTC (site TGGACTACTGA)”, with 0.195. Then “TGGACTTCTTGGGTTCTAACCTGTTGCTG (site TGGACTTCTCA)”, with 0.0836; and “TGGACTTCTTGGGTTCTAACCTGTTGCTG (site TGGACTTCTGA)”, with 0.215; and “TGGAGCCCTTGGGTTCTAACCTGTTGCAG (site TGGAGCCCTAT)”, with 0.13.

Consider “TGGAGCCCTTGGGTTCTAACCTGTTGCAG (site TGGAGCCCTCT)”, for which the “recombinant barcode read abundance (log10)” value came to 0.484. Regarding “TGGAGCCCTTGGGTTCTAACCTGTTGCAG (site TGGAGCCCTGT)”, the “recombinant barcode read abundance (log10)” value is 0.336. Regarding “TGGAGCCCTTGGGTTCTAACCTGTTGCAG (site TGGAGCCCTTT)”, the “recombinant barcode read abundance (log10)” value is 0.0206. For “TGGAGTACTTGGGTTCTAACCTGTTGCCT (site TGGAGTACTAG)”, the “recombinant barcode read abundance (log10)” value was 0.874. As to “TGGAGTACTTGGGTTCTAACCTGTTGCCT (site TGGCGTACTAG)”, the “recombinant barcode read abundance (log10)” value was determined as 0.0846. Then “TGGAGTACTTGGGTTCTAACCTGTTGCCT (site TGGGGTACTAG)”, with 0.146; and “TGGAGTACTTGGGTTCTAACCTGTTGCCT (site TGGTGTACTAG)”, with 0. The result for “TGGAGTCCTTGGGTTCTAACCTGTTGCCT (site TGGAGTCCTAG)” reads 1.11; that for “TGGAGTCCTTGGGTTCTAACCTGTTGCCT (site TGGCGTCCTAG)”, 0.0977; that for “TGGAGTCCTTGGGTTCTAACCTGTTGCCT (site TGGGGTCCTAG)”, 0.548. The result for “TGGAGTCCTTGGGTTCTAACCTGTTGCCT (site TGGTGTCCTAG)” reads 0.0821; that for “TGGATGGCTTGGGTTCTAACCTGTTGCCT (site GGGATGGCTAG)”, 0.149; that for “TGGATGGCTTGGGTTCTAACCTGTTGCCT (site TGGATGGCTAG)”, 0.17.

Regarding “TGGCAGGCTTGGGTTCTAACCTGTTGCCT (site TGGCAGACTAG)”, the “recombinant barcode read abundance (log10)” value was 0.0119.

As for “TGGCAGGCTTGGGTTCTAACCTGTTGCCT (site TGGCAGCCTAG)”, the “recombinant barcode read abundance (log10)” value stood at 0.00869. “TGGCAGGCTTGGGTTCTAACCTGTTGCCT (site TGGCAGGCTAG)”: the “recombinant barcode read abundance (log10)” value was determined as 0.64.

Take “TGGCAGGCTTGGGTTCTAACCTGTTGCCT (site TGGCAGTCTAG)”: the “recombinant barcode read abundance (log10)” value amounted to 0.0352. “TGGCAGTCTTGGGTTCTAACCTGTTGCCT (site TGGCAGACTAG)”: the “recombinant barcode read abundance (log10)” value stood at 0.207. Then “TGGCAGTCTTGGGTTCTAACCTGTTGCCT (site TGGCAGCCTAG)”, with 0.0447.

On to “TGGCAGTCTTGGGTTCTAACCTGTTGCCT (site TGGCAGGCTAG)”, for which the “recombinant barcode read abundance (log10)” value was 0.272. Then “TGGCAGTCTTGGGTTCTAACCTGTTGCCT (site TGGCAGTCTAG)”, with 0.413; and “TGGCATCCTTGGGTTCTAACCTGTTGCGT (site AACAGGGCTCG)”, with 0.0723; and “TGGCATCCTTGGGTTCTAACCTGTTGCGT (site TGGCATCCTAC)”, with 2.53. Take “TGGCCACCTTGGGTTCTAACCTGTTGCCT (site CGGCCACCTAG)”: the “recombinant barcode read abundance (log10)” value came out at 0.115. Then “TGGCCACCTTGGGTTCTAACCTGTTGCCT (site TGGCCACCTAG)”, with 1.6. As to “TGGCCCTCTTGGGTTCTAACCTGTTGCTT (site TGGCCCTCTAA)”, the “recombinant barcode read abundance (log10)” value was determined as 1.63. The result for “TGGCCCTCTTGGGTTCTAACCTGTTGCTT (site TGGCCCTCTCA)” reads 0.293; that for “TGGCCCTCTTGGGTTCTAACCTGTTGCTT (site TGGCCCTCTGA)”, 0.52; that for “TGGCCCTCTTGGGTTCTAACCTGTTGCTT (site TGGCCCTCTTA)”, 0.056. In the case of “TGGCCGACTTGGGTTCTAACCTGTTGCAC (site TCGCAGACTGT)”, the “recombinant barcode read abundance (log10)” value was found to be 0.0415. Consider “TGGCCGACTTGGGTTCTAACCTGTTGCAC (site TGGCCGACTGT)”, for which the “recombinant barcode read abundance (log10)” value came to 1.65.

“TGGCCTGCTTGGGTTCTAACCTGTTGCCT (site TGGCCTGCTAG)”: the “recombinant barcode read abundance (log10)” value is 0.868. Regarding “TGGCCTGCTTGGGTTCTAACCTGTTGCCT (site TGGCGAGCTAG)”, the “recombinant barcode read abundance (log10)” value was 0.176. Regarding “TGGCTAGCTTGGGTTCTAACCTGTTGCAC (site CATTCGCCTAC)”, the “recombinant barcode read abundance (log10)” value was determined as 0.0401.

Consider “TGGCTAGCTTGGGTTCTAACCTGTTGCAC (site TGGCTAGCTGT)”, for which the “recombinant barcode read abundance (log10)” value is 1.77. As to “TGGGACACTTGGGTTCTAACCTGTTGCCG (site AGGGACTCTCG)”, the “recombinant barcode read abundance (log10)” value turned out to be 0.403. “TGGGACACTTGGGTTCTAACCTGTTGCCG (site TGGGACACTCG)”: the “recombinant barcode read abundance (log10)” value was found to be 2.48. Regarding “TGGGTCACTTGGGTTCTAACCTGTTGCTA (site GTTTAATCTAT)”, the “recombinant barcode read abundance (log10)” value came to 0.0621. With “TGGGTCACTTGGGTTCTAACCTGTTGCTA (site TGGGTCACTTA)”, the “recombinant barcode read abundance (log10)” value stood at 2.07.
